Laboratory results published in patent US9187480B2, “Peripherally restricted diphenyl purine derivatives” (RESEARCH TRIANGLE INSTITUTE, priority 2012, dated 2015).

Tests used:
CB1 [1] = target: T1, CB1 (Homo sapiens (Human), UniProt P21554); assay: CB1 activated Gαq16-coupled intracellular calcium mobilization assay in CHO-K1 cells; type: cell-based; settings: apparent affinity (Ke)
CB2 = CB2 (Homo sapiens (Human), UniProt P34972); assay: Displacement of [3H]CP55940 in membranes of CHO-K1 cells over-expressing CB2; type: binding; settings: radioligand [3H]CP55940, CHO-K1 membranes; read-out: Ki (nM) v. [3H]CP55940 at CB2
CB1 [2] = target: T1, CB1; assay: Displacement of [3H]CP55940 in membranes of CHO-K1 cells over-expressing CB1;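 as to all read-outs here: reported values are averages of 3-6 independent measurements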; settings: for Binding Selectivity using CP55940 Displacement: CB1 versus CB2; for Ki: read-out: Ki (nM) v. [3H]CP55940 at CB1, radioligand [3H]CP55940, CHO-K1 membranes
Procedure: Further characterization of select compounds was performed using radioligand displacement of [3H]1 and equilibrium dissociation constant (Ki) values were determined. Selectivity of these compounds at CB1 versus CB2 was also determined by obtaining Ki values at either receptor using displacement of [3H]CP55940 in membranes of CHO-K1 cells over-expressing either receptor. Data reported are average values from 3-6 measurements.
Selectivity against the CB2 receptor was determined by comparing the compound displacement of radiolabeled CP55940, which is a cannabinoid known to act as a full agonist at both CB1 and CB2 receptors.

[3] = Brain penetration / plasma and brain levels after oral dosing in SD rats; type: in vivo, Sprague-Dawley (SD) rats; settings: oral 10 mg/kg; for Kp at 1 h / Kp at 2 h / Kp at 4 h / Kp at 24 h / Kp: Sprague-Dawley, rat, brain and plasma; for Kp: range over sampling times, read-out: brain to plasma ratios; for Brain conc.: unperfused brain
Procedure: However, unlike otenabant, this sulfonamide is a peripherally selective compound. […] Select compounds were chosen for study to determine penetration into the CNS. Selected compounds were dosed orally at 10 mg/kg in SD rats. Brain and plasma samples were collected at 1, 2, 4, and 24 hours post dose and samples were analyzed by MS (Table 2, below). Since unperfused brains were used and the blood volume in unperfused brains is approximately 4%, a brain to plasma level of ≦0.04 represents no discernible penetration into the CNS.

MDCK-MDR = MDCK-MDR transport (apical to basal); type: in vitro ADME

Sequence of CB2 (P34972 whole entry): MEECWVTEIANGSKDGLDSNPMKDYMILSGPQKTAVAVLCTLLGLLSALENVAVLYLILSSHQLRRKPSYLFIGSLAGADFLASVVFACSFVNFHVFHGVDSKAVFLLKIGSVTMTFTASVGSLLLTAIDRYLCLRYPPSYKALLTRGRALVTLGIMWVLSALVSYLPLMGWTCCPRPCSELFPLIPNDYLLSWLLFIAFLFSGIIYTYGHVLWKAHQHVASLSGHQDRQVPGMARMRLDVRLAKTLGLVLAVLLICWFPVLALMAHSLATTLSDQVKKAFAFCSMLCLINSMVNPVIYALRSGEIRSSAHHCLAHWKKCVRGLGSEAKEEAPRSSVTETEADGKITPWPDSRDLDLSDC
T1 sequence (P21554 whole entry): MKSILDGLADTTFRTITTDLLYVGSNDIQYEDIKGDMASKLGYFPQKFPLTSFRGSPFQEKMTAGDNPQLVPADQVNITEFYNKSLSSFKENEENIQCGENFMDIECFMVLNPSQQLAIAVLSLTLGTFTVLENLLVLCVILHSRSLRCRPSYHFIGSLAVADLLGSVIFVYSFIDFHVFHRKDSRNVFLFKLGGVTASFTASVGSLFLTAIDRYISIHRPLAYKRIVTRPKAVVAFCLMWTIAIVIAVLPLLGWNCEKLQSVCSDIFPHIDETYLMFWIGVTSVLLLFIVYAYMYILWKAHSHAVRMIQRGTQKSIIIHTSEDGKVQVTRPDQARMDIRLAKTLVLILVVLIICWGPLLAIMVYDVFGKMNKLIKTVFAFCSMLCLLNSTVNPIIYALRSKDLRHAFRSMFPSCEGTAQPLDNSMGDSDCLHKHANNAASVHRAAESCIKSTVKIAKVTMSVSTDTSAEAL

SMILES	Ke (nM) at CB1 (CB1 [1])	Ki (CB2)	Binding Selectivity using CP55940 Displacement (CB1 [2])	Ki (CB1 [2])	further results
O=C(CCN1CCCCC1)NC1CCN(c2ncnc3c2nc(-c2ccccc2Cl)n3-c2ccc(Cl)cc2)CC1	789 nM				
CCCNC(=O)N1CCC(Nc2ncnc3c2nc(-c2ccccc2Cl)n3-c2ccc(Cl)cc2)CC1	1964 nM				
O=C(NC1CCN(c2ncnc3c2nc(-c2ccccc2Cl)n3-c2ccc(Cl)cc2)CC1)C(F)(F)F	3.19 nM				
CCOC(=O)NC1CCN(c2ncnc3c2nc(-c2ccccc2Cl)n3-c2ccc(Cl)cc2)CC1 [drawing 62]	2.3 nM	426 nM	119	3.57 nM	
CC(C)(C)OC(=O)N1CCC(Nc2ncnc3c2nc(-c2ccccc2Cl)n3-c2ccc(Cl)cc2)CC1	92 nM	13600 nM	568.8	23.9 nM	
NS(=O)(=O)NC1CCN(c2ncnc3c2nc(-c2ccccc2Cl)n3-c2ccc(Cl)cc2)CC1	2768 nM				
CCOC(=O)NC1CCN(c2ncnc3c2nc(-c2ccccc2Cl)n3-c2ccc(Cl)cc2)CC1 [drawing 84]					Kp at 1 h ([3]; 1 hour post dose): 0.28; Kp at 2 h ([3]; 2 hours post dose): 0.14; Kp at 4 h ([3]; 4 hours post dose): 0.16; Kp at 24 h ([3]; 24 hours post dose): 0.46; Kp [3]: 0.14 to 0.46; Plasma conc. ([3]; 1 hour post dose): 740 ng/mL; Plasma conc. ([3]; 2 hours post dose): 971 ng/mL; Plasma conc. ([3]; 4 hours post dose): 1750 ng/mL; Plasma conc. ([3]; 24 hours post dose): 72.6 ng/mL; Brain conc. ([3]; 1 hour post dose): 207 ng/mL; Brain conc. ([3]; 2 hours post dose): 132 ng/mL; Brain conc. ([3]; 4 hours post dose): 276 ng/mL; Brain conc. ([3]; 24 hours post dose): 33.5 ng/mL
CCNC(=O)NC1(c2ccccc2)CCN(c2ncnc3c2nc(-c2ccccc2Cl)n3-c2ccc(Cl)cc2)CC1	443 nM	4640 nM	24	195 nM	
CCCCC(=O)NC1CCN(c2ncnc3c2nc(-c2ccccc2Cl)n3-c2ccc(Cl)cc2)CC1 [drawing 78]	4.9 nM	1050 nM	54	19.5 nM	
CC(C)(C)NC(=O)C1(c2ccccc2)CCN(c2ncnc3c2nc(-c2ccccc2Cl)n3-c2ccc(Cl)cc2)CC1	2.2 nM	20000 nM	4902	4.08 nM	% MDCK-MDR transport (Apical to Basal) (MDCK-MDR): <1%
CC(=O)NC1CCN(c2ncnc3c2nc(-c2ccccc2Cl)n3-c2ccc(Cl)cc2)CC1	631 nM				
CCCCNC(=O)N1CCC(Nc2ncnc3c2nc(-c2ccccc2Cl)n3-c2ccc(Cl)cc2)CC1	71 nM				
O=S(=O)(NC1CCN(c2ncnc3c2nc(-c2ccccc2Cl)n3-c2ccc(Cl)cc2)CC1)C(F)(F)F	1.05 nM	4500 nM	738	6.1 nM	
NC1CCN(c2ncnc3c2nc(-c2ccccc2Cl)n3-c2ccc(Cl)cc2)CC1	316 nM				
O=C(CC1CCCCC1)NC1CCN(c2ncnc3c2nc(-c2ccccc2Cl)n3-c2ccc(Cl)cc2)CC1	2.1 nM	2360 nM		1.93 nM	
CN(C)CC(=O)NC1CCN(c2ncnc3c2nc(-c2ccccc2Cl)n3-c2ccc(Cl)cc2)CC1	140 nM				
CCNC(=O)N1CCCC(Nc2ncnc3c2nc(-c2ccccc2Cl)n3-c2ccc(Cl)cc2)C1 (stereo not drawn)	1153 nM				
CCCNC(=O)NC1CCN(c2ncnc3c2nc(-c2ccccc2Cl)n3-c2ccc(Cl)cc2)CC1	132 nM				
CC(=O)N1CCC(Nc2ncnc3c2nc(-c2ccccc2Cl)n3-c2ccc(Cl)cc2)CC1	19595 nM				
CC(C)NC(=O)NC1(c2ccccc2)CCN(c2ncnc3c2nc(-c2ccccc2Cl)n3-c2ccc(Cl)cc2)CC1	46 nM				
CC(C)NC(=O)N1CCC(Nc2ncnc3c2nc(-c2ccccc2Cl)n3-c2ccc(Cl)cc2)CC1	495 nM				
CC(C)(C)NC(=O)NC1(c2ccccc2)CCN(c2ncnc3c2nc(-c2ccccc2Cl)n3-c2ccc(Cl)cc2)CC1	19.17 nM	20000 nM	784	25.5 nM	% MDCK-MDR transport (Apical to Basal) (MDCK-MDR): <1%
O=C(CC1CCCC1)NC1CCN(c2ncnc3c2nc(-c2ccccc2Cl)n3-c2ccc(Cl)cc2)CC1	2.9 nM	569 nM	282	2.02 nM	
NC1(c2ccccc2)CCN(c2ncnc3c2nc(-c2ccccc2Cl)n3-c2ccc(Cl)cc2)CC1	15.89 nM	1660 nM	151	11 nM	% MDCK-MDR transport (Apical to Basal) (MDCK-MDR): <1%

SMILES	Ke (nM) at CB1 (CB1 [1])	Ki (CB2)	Binding Selectivity using CP55940 Displacement (CB1 [2])	Ki (CB1 [2])	further results
CS(=O)(=O)N1CCC(Nc2ncnc3c2nc(-c2ccccc2Cl)n3-c2ccc(Cl)cc2)CC1	1645 nM				
Clc1ccc(-n2c(-c3ccccc3Cl)nc3c(NC4CCNCC4)ncnc32)cc1	Not active				
CC(C)CC(=O)NC1CCN(c2ncnc3c2nc(-c2ccccc2Cl)n3-c2ccc(Cl)cc2)CC1	5.4 nM	89.5 nM	22	4.01 nM	
CCOC(=O)CNC(=O)NC1(c2ccccc2)CCN(c2ncnc3c2nc(-c2ccccc2Cl)n3-c2ccc(Cl)cc2)CC1	171 nM				
CCNC(=O)NC1CCN(c2ncnc3c2nc(-c2ccccc2Cl)n3-c2ccc(Cl)cc2)CC1	149 nM				
CC(C)CCC(=O)NC1CCN(c2ncnc3c2nc(-c2ccccc2Cl)n3-c2ccc(Cl)cc2)CC1	7.4 nM	215 nM	81	2.67 nM	
CCNC(=O)N1CCC(Nc2ncnc3c2nc(-c2ccccc2Cl)n3-c2ccc(Cl)cc2)CC1	1148 nM				
CC(C)NC(=O)NC1CCN(c2ncnc3c2nc(-c2ccccc2Cl)n3-c2ccc(Cl)cc2)CC1	133 nM				
O=C(NC1CCN(c2ncnc3c2nc(-c2ccccc2Cl)n3-c2ccc(Cl)cc2)CC1)c1ccccc1		10600 nM			
CCCCC(=O)NC1CCN(c2ncnc3c2nc(-c2ccccc2Cl)n3-c2ccc(Cl)cc2)CC1 [drawing 85]					Kp at 1 h ([3]; 1 hour post dose): 0.03; Kp at 2 h ([3]; 2 hours post dose): 0.03; Kp at 4 h ([3]; 4 hours post dose): 0.07; Kp at 24 h ([3]; 24 hours post dose): 0.13; Kp [3]: 0.03 to 0.13; Plasma conc. ([3]; 1 hour post dose): 1430 ng/mL; Plasma conc. ([3]; 2 hours post dose): 2780 ng/mL; Plasma conc. ([3]; 4 hours post dose): 1680 ng/mL; Plasma conc. ([3]; 24 hours post dose): 18.7 ng/mL; Brain conc. ([3]; 1 hour post dose): 43.6 ng/mL; Brain conc. ([3]; 2 hours post dose): 72.4 ng/mL; Brain conc. ([3]; 4 hours post dose): 119 ng/mL; Brain conc. ([3]; 24 hours post dose): 2.36 ng/mL
O=S(=O)(NC1CCN(c2ncnc3c2nc(-c2ccccc2Cl)n3-c2ccc(Cl)cc2)CC1)c1ccccc1	0.26 nM				
CC(=O)NC1(c2ccccc2)CCN(c2ncnc3c2nc(-c2ccccc2Cl)n3-c2ccc(Cl)cc2)CC1	10.31 nM	726 nM	121	6 nM	% MDCK-MDR transport (Apical to Basal) (MDCK-MDR): 6%
CCCCNC(=O)NC1CCN(c2ncnc3c2nc(-c2ccccc2Cl)n3-c2ccc(Cl)cc2)CC1	49 nM				
O=C(NC1CCN(c2ncnc3c2nc(-c2ccccc2Cl)n3-c2ccc(Cl)cc2)CC1)C1CCCCC1	3.3 nM	835 nM	249	3.35 nM	
CCCNC(=O)NC1(c2ccccc2)CCN(c2ncnc3c2nc(-c2ccccc2Cl)n3-c2ccc(Cl)cc2)CC1	100 nM				
CCCCNC(=O)NC1(c2ccccc2)CCN(c2ncnc3c2nc(-c2ccccc2Cl)n3-c2ccc(Cl)cc2)CC1	62 nM				
O=C(NC1CCN(c2ncnc3c2nc(-c2ccccc2Cl)n3-c2ccc(Cl)cc2)CC1)C1CCCC1	0.89 nM	60.2 nM	39	1.54 nM	
CC(=O)N1CCCC(Nc2ncnc3c2nc(-c2ccccc2Cl)n3-c2ccc(Cl)cc2)C1 (stereo not drawn)	4449 nM				
CC(C)(C)OC(=O)NC1CCN(c2ncnc3c2nc(-c2ccccc2Cl)n3-c2ccc(Cl)cc2)CC1	11 nM				
CC(C)(C)OC(=O)NC1(c2ccccc2)CCN(c2ncnc3c2nc(-c2ccccc2Cl)n3-c2ccc(Cl)cc2)CC1	3.93 nM	13900 nM	1959	7.12 nM	% MDCK-MDR transport (Apical to Basal) (MDCK-MDR): <1%
O=C(NC1CCCCC1)NC1(c2ccccc2)CCN(c2ncnc3c2nc(-c2ccccc2Cl)n3-c2ccc(Cl)cc2)CC1	199 nM				
CS(=O)(=O)NC1CCN(c2ncnc3c2nc(-c2ccccc2Cl)n3-c2ccc(Cl)cc2)CC1	71 nM				
COC(=O)NC1CCN(c2ncnc3c2nc(-c2ccccc2Cl)n3-c2ccc(Cl)cc2)CC1	17 nM				
